Active and inactive are the calls of the source. The rule behind the calls is not given here.
Key:
[1] = tested on: INS1; test: INS-1E mitochondrial potential rescue under cytokines – cell-based, JC-1 fluorescence ratio, dry powder, dose response (AID 488931); format: functional; settings: Rattus norvegicus
[2] = target: Cytochrome P450 3A4 (Homo sapiens, UniProt P08684); settings: Potency;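 note: confirmatory qHTS run detecting inhibitors and substrates of CYP3A4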
[3] = target: Voltage-gated inwardly rectifying potassium channel KCNH2 (Homo sapiens, UniProt Q12809); settings: Potency;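 note: confirmatory quantitative high-throughput screen measuring inhibition of hERG channel activity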
Sequence of Voltage-gated inwardly rectifying potassium channel KCNH2 (Q12809 whole entry): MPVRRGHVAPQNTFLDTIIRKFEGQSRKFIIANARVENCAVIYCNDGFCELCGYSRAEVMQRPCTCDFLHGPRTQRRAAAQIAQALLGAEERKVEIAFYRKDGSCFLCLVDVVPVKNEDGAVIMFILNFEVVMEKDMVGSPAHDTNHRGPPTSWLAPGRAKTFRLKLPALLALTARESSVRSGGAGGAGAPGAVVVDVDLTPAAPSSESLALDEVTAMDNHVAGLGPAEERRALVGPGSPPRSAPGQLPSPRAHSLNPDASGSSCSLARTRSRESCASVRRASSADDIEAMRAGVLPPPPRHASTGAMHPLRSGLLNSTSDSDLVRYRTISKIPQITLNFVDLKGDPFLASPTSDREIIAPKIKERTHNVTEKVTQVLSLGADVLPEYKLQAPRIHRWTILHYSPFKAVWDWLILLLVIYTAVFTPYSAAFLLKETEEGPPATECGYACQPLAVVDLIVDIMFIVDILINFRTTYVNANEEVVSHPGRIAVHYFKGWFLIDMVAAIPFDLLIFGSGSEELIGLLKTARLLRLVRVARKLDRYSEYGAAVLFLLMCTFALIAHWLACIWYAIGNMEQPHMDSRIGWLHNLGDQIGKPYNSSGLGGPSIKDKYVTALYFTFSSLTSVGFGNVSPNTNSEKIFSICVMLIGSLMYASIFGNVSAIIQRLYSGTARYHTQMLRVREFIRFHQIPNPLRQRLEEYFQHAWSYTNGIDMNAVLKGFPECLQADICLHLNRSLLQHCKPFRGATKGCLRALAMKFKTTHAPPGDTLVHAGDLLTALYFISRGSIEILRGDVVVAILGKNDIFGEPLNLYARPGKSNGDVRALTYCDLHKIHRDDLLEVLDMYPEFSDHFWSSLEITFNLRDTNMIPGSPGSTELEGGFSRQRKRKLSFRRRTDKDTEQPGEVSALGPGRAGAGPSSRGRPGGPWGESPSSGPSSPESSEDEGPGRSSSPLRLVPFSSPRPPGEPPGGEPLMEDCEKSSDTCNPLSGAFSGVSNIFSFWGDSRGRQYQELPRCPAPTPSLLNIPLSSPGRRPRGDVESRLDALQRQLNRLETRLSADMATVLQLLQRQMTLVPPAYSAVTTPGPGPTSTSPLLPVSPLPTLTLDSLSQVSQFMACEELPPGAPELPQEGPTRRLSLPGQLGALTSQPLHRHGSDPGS

Sequence of Cytochrome P450 3A4 (P08684 whole entry): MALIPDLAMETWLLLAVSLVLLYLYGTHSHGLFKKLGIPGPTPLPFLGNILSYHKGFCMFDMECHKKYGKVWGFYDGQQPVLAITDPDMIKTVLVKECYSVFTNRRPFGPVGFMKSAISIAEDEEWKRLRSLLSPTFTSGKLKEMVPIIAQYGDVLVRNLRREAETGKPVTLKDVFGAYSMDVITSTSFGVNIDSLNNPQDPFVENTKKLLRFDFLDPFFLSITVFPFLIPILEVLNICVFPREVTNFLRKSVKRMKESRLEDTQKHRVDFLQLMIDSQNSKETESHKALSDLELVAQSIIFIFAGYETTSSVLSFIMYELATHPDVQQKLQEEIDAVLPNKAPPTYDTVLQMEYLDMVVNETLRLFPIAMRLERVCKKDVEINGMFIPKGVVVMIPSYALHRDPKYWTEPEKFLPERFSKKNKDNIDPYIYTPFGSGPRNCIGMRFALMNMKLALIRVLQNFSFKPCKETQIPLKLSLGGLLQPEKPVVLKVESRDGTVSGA

In the case of COc1ccc(S(=O)(=O)N(C)C[C@@H]2Oc3c(NC(=O)c4ccncc4)cccc3C(=O)N([C@@H](C)CO)C[C@H]2C)cc1, the AC50 [1] is reported as 32.7 µM (active).
In the case of Clc1ccc(C(Cl)(Cl)Cl)c(Cl)c1, the AC50 [2] is reported as 31.6 µM (inconclusive) and the AC50 [3] is reported as 20 µM (inconclusive).
